Results as given in patent US12570709B2, “Self-assembling peptide amphiphiles displaying a transforming growth factor beta 1 (TGF-ß1) mimetic epitope” (Northwestern University, priority 2021, dated 2026).
Bridge positions count the residues as written; N and C are the ends. Ends that are not written are not given here. I, II: the chains in the order shown. * marks the point of attachment. Palmitoyl = CCCCCCCCCCCCCCCC(=O)*

Columns and labels:
[1] = tested on: collagen II, COMP, aggrecan and Sox9 in human chondrocytes; assay: Western blot of ECM proteins after three days treatment; assay type: cell-based; conditions: 10 μM, three days in vitro
Description: (§1) For western blot of 4 h PA treatments, cells were seeded in 6-well plates at a density of 600,000 cells/well and cultured for 24 h. […] Cells were then treated with PA in solution for 4 h in vitro. For western blot of 3-day PA treatments, cells were seeded in 6-well plates at a density of 230,000 cells/well and cultured for 24 h. Cells were then treated with PA in solution for 3 days in vitro.
(§2) Protein was extracted from cells using Halt Protease and Phosphatase Inhibitor Cocktail (Thermo Scientific) and a BCA assay (Thermo Scientific) was performed to determine protein content of each sample. Cell protein was loaded into and separated using a 4-20% SDS-PAGE gel (Bio-Rad). It was then electrotransferred from the gel to a nitrocellulose membrane (Bio-Rad). The membranes were blocked with 10% milk solution (Bio-Rad) for 30 minutes followed by an overnight incubation with primary antibodies at 4° C. The following primary antibodies were used: rabbit anti-pSmad2 (1:1000, Cell Signaling), rabbit anti-Smad2 (1:1000, Cell Signaling), rabbit anti-Sox9 (1:500, Abcam), mouse anti-Aggrecan (1:500, ThermoFisher), rabbit anti-COMP/Cartilage oligomeric matrix protein (1:500, Abcam), mouse anti-Collagen II (1:500, ThermoFisher), and mouse anti-Actin (1:1000, Novus Bio). Membranes were then incubated with their corresponding secondary HRP-conjugated antibodies (1:1000, ThermoFisher). Protein signals were detected using Radiance Bioluminescent ECL substrate (Azure Biosystems). Densitometry analysis, standardized to total receptor content or actin as a control for protein loading, was performed using ImageJ software. For quantification, experimental triplicate samples were analyzed, and two different experiments were conducted.

[2] = Rheology of PA hydrogels (strain sweep, G′/G″ crossover); assay type: physicochemical; conditions: PA gels, 10 mol % co-assemblies
Description: Gels were made using 2 wt % PA solutions prepared as previously described, using 10 mol % co-assemblies of epitope PA with diluent PA. 12-well chamber slides (Ibidi) were coated with 0.01 mg/mL poly-D-lysine (Sigma-Aldrich) solution and incubated overnight at 37° C. The wells were washed three times with water and air-dried for at least 30 minutes. 120 μL of PA solution was pipetted evenly into the well and gelling solution comprised of 110 mM NaCl, 3 mM KCl, and 25 mM CaCl2 was pipetted dropwise on top of the PA solution. The gels were incubated at 37° C. for 30 minutes, and then excess gelling solution was removed.
Measurements were performed on an Anton Paar MCR302 rheometer with a 25 mm parallel-plate fixture. 120 μL of the PA/HA hybrid slurry was placed on the bottom plate and 30 μL of a 50 mM CaCl2/75 mM NaCl gelling solution was placed on the upper fixture. The fixture was lowered to a gap of 0.5 mm for 10 min during which time a 0.1% oscillatory strain was applied with a 10 rad/s angular frequency. The gap height was allowed to vary to keep the normal force at 0 N. Next, a strain sweep was performed at 10 rad/s from 0.1% to 100% strain to measure the strain to break the gel.

[3] = Cryo-TEM of PA nanostructures; assay type: physicochemical; conditions: 10 mol % co-assembly with diluent backbone PA
Description: 300-mesh copper grids with lacey carbon film (Electron Microscopy Sciences) were glow discharged for 30 seconds in a PELCO easiGlow system (Ted Pella, Inc.). PA solutions were prepared as previously described and then diluted to 1 mM in water before imaging. 7 μL of PA solution was placed onto grids, blotted, and plunge-frozen in liquid ethane using an FEI Vitrobot Mark IV (FEI), maintained at 95-100% humidity. While submerged in liquid nitrogen, vitrified samples were transferred to a Gatan 626 cryo-holder (Gatan) and imaged on a JEOL 1230 TEM operating at 100 kV accelerating voltage. Liquid nitrogen temperatures were maintained during imaging, and micrographs were captured with a Gatan 832 CCD camera.

[4] = tested on: human chondrocytes encapsulated in PA hydrogels; assay: F-actin ICC and confocal microscopy of chondrocytes encapsulated in PA gels; assay type: cell-based; conditions: three days in vitro
Description: Fixed samples were permeabilized and blocked in a solution of 0.1% (v/v) Triton X-100 and 1% normal horse serum (Invitrogen) for 2 hours at room temperature. Samples were incubated with primary antibodies overnight at 4° C. The following primary antibodies were used: rabbit anti-Sox9 (1:500, Abcam), mouse anti-Aggrecan (1:500, ThermoFisher), mouse anti-Collagen II (1:500, ThermoFisher), and mouse anti-Nuclei (1:500, Sigma-Aldrich). The next day, samples were incubated with AlexaFluor 488 secondary antibody, AlexaFluor 555 secondary antibody, Phalloidin AlexaFluor 488, and/or Phalloidin AlexaFluor 633 (1:1000, Invitrogen) for 2-3 h at room temperature. For 2D cell culture, samples were then incubated with DAPI (1:1000, Invitrogen) for 10 minutes at room temperature. If not already on a glass coverslip, samples were mounted with Immu-Mount (Thermo Scientific) and imaged on a Nikon A1R Spectral microscope. Image analysis was performed using ImageJ software.
Chondrocytes were trypsinized and resuspended in growth media for counting, and then pelleted and resuspended to 6×10^7 cells/mL in growth media. The cell solution was mixed 1:2 v/v with sterile PA solution prepared at 3 wt % in 30 mM NaCl. For gels also encapsulating rhTGF-β1 protein (R&D Systems), soluble protein was added to PA solutions after thermal annealing. 120 μL of PA/cell solution was mixed thoroughly by pipetting gently and then placed into PDL-coated 12-well chamber slides (Ibidi). Sterile gelling solution, comprised of 110 mM NaCl, 3 mM KCl, and 25 mM CaCl2, was pipetted dropwise on top of the PA/cell solution and the gels were incubated for 30 minutes at 37° C. Following incubation, excess gelling solution was removed and 250 μL of growth media was added to each well. The media was removed after 3 days for LDH viability assays as described above. For ICC, after 3 days of in vitro culture, gels were fixed in 4% paraformaldehyde for 30 minutes at room temperature.

[5] = Transverse-relaxation (T2) NMR spectroscopy of PA assemblies; assay type: physicochemical; conditions: TGF PA co-assembled at 10 mol % with diluent backbone PA
Description: NMR spectra were acquired at 600 MHz on a Brucker Neo system with QCI-F cryoprobe. NMR spectra for PAs were recorded at 25° C. using TFA-d, H2O/D2O in 9/1 ratio (D2O contains 0.05 wt. % 3-(trimethylsilyl) propionic-2,2,3,3-d4 acid, sodium salt) as solvents. Chemical shifts are reported in part per million (ppm). The […] was 15 μs and typical spectra required 32 scans.
The spin-spin relaxation rates were measured using the Carr-Purcell-Gill-Meiboom pulse sequence with a delay time of 0.2 ms in a variable loop. The peak intensity data was fit to and exponential in the form:
[formula] where τ is the length of the delay time, R2 is the spin-spin relaxation rate and b are the baseline.^2 Cell Culture

[6] = tested on: Smad2 phosphorylation (intracellular TGF-β1 signaling) in human chondrocytes; assay: Western blot of phosphorylated Smad2 after 4 h treatment; assay type: cell-based; conditions: for p-Smad2 activation: 50 μM, 4 h
Description: as §1, §2

Substance: TGF PA-a: backbone PA-a (SEQ ID NO: 7) conjugated to cyclic TGF-β1 mimetic peptide (SEQ ID NO: 1) by a linker; co-assembled with diluent Backbone PA-a (chain Palmitoyl-AAEEK-OH; peptide CESPLKRQC; disulfide II:1-II:9; not fully specified (some residues); also: co-assembled with diluent backbone PA-a)
- ECM synthesis (collagen II, COMP, aggrecan, Sox9) [1]: upregulated ECM synthesis significantly more than all other PA treatments
- levels of collagen II compared with native rhTGF-β1 protein [1]: significantly higher levels of collagen II
- G′/G″ crossover % strain [2]: 5.80 ± 1.40%
- G′/G″ crossover storage modulus [2]: 0.63 ± 1.14 kPa
- width of ribbon-like nanostructures [3]: 50-60 nm
- morphology and distribution of encapsulated cells [4]: compact, elliptical morphologies and were well-dispersed
- cells within the bulk of the gel ([4]; equal concentrations of cells encapsulated): remained inside the gels and survived three days in vitro
- relaxation rate for the alkyl tail protons, compared with TGF PA-b assemblies [5]: nearly five times higher
- p-Smad2 activation ([6]; 10 mol % co-assemblies): upregulated p-Smad2 significantly more than all other PA treatments
- p-Smad2 activation ([6]; 10 mol % co-assembly): strong p-Smad2 activation
- activation of p-Smad2 with addition of pan-TGF-β-neutralizing antibody 1D11 ([6]; with vs without 1D11): effectively neutralized
- significance of the neutralizing effect of 1D11 on p-Smad2 activation ([6]; with vs without 1D11): statistically significant
